Assay results reported in patent US20210186930A1, “Methods of Treating Renal Disease Associated With Chronic Kidney Disease Such as Alport Syndrome” (UNIVERSITY OF MIAMI, priority 2018, published 2021).
Entries after “also recorded” stand apart in the source; their conditions may differ.

Columns and labels:
[1] = ambient temperature; cited from earlier work
Col4a3−/− mice = assay: Renal function in Col4a3-/- mice treated with ezetimibe, ramipril or both (Example 1, FIG. 5); type: in vivo, mouse; settings: vs untreated Col4a3−/−
Description: Albumin/creatinine ratio: All albuminuria values are expressed as μg albumin/mg creatinine. Albumin/creatinine determined by ELISA (Bethyl Laboratories) for albumin detection and a biochemical assay based on the Jaffe method for creatinine detection (Stanbio) as previously described. Serology: Immediately prior to sacrifice, a blood sample was collected for the determination of BUN and lipid panel analysis in the comparative laboratory core facility of the University of Miami. Serum creatinine was determined by tandem mass spectrometry (UAB-UCSD O'Brien Core Center, University of Alabama). The following experiment was performed to investigate which treatment, ezetimibe (EZ), ramipril (Ramp) or the combination of both drugs (EZ+Ramp), would best preserve renal function in Col4a3 knockout mice, all drugs were administered to 4-week-old Col4a3−/− mice for 4 weeks as follows: ezetimibe (Ez) was orally administered at a concentration of 5 mg/kg BW, ramipril was added to the drinking water at a concentration that would lead to a daily ramipril uptake of 10 mg/kg BW. All mice were sacrificed at 8 weeks of age. The following four groups of mice were analyzed: Col4a3^+/+, Col4a3^−/−+Ez, Col4a3^−/−+Ramp and Col4a3^−/−+Ez+Ramp.

Col4a3 knockout mice [2] = assay: Renal function and body weight in Col4a3 knockout mice treated with ezetimibe (FIG. 3); type: in vivo, mouse
Procedure: (§1) Mouse models: Mice in which exon 5 of a3 chain of collagen type IV is deleted (Col4a3 KO) were obtained from the Jackson Laboratory (#002908, 129-Col4a3tm1Dec/J). Col4a3 heterozygous littermates were bred to generate Col4a3 KO mice. Four groups of mice with n=3-10 per group were studied. The four groups consisted of: 1) wildtype controls+vehicle, 2) wildtype controls+ezetimibe, 3) Col4a3 KO+vehicle, 4) Col4a3 KO+ezetimibe. ezetimibe was administered by oral gavage daily starting at 4 weeks of age at a concentration of 5 mg/kg body weight. […] Mice were sacrificed at 8 weeks of age when progression to end-stage renal failure had occurred.
Albumin/creatinine ratio: All albuminuria values are expressed as μg albumin/mg creatinine. Albumin/creatinine determined by ELISA (Bethyl Laboratories) for albumin detection and a biochemical assay based on the Jaffe method for creatinine detection (Stanbio) as previously described.
(§2) Serology: Immediately prior to sacrifice, a blood sample was collected for the determination of BUN and lipid panel analysis in the comparative laboratory core facility of the University of Miami. Serum creatinine was determined by tandem mass spectrometry (UAB-UCSD O'Brien Core Center, University of Alabama).

Col4a3 knockout mice [3] = assay: Fibrosis, lipid droplets, serum and kidney cortex lipids, CD36 in Col4a3 knockout mice treated with ezetimibe (FIG. 4); type: in vivo, mouse
Procedure: Determination of cholesterol content in kidney cortex: Tissue from kidney cortexes was homogenized in hypotonic buffer (10 mM HEPES pH7.0, 15 mM KCl, 1 mM MgCl2, 10 mM phosphatase inhibitors). Lipids from 100 μl of the homogenate were extracted with 1 ml of hexane:isopropanol (3:2, v/v), dried and reconstituted in 100 μl of isopropanol-NP40 (9:1, v/v). Tissue fractions not soluble in the organic solvent, were further dried, reconstituted in 8 M urea, and assayed for protein concentration using Pierce BCA protein assay kit (ThermoFisher Scientific, MA, USA). Total cholesterol from lipid extracts was determined by the enzymatic method as previously described (Robinet, P., Wang, Z., Hazen, S. L. & Smith, J. D. A simple and sensitive enzymatic method for cholesterol quantification in macrophages and foam cells. Journal of lipid research 51, 3364-3369, 2010). Briefly, endogenous peroxides present were eliminated by incubating samples and standards with catalase (Sigma-Aldrich, MO, USA), 45 U/ml final concentration, for 15 min at 37° C. Then, 50 μl of samples and standards were mixed with 50 μl of reagent A (2 U/ml cholesterol oxidase (Sigma-Aldrich, MO, USA), 0.6 U/ml cholesterol esterase (MP Biomedicals), 2 U/ml HRP (Sigma), 100 μM Amplex Red (ThermoFisher Scientific, MA, USA) in black 96-well plates. The plates were incubated at 37° C. for 30 min and fluorescence was read at 530 nm (Ex) and 580 nm (Em) in a plate reader (SpectraMax M5, Molecular Devices, CA, USA). Cholesteryl esters (CE) quantification was based on the method described from Toshimi M, et al. Briefly, 25 μl of samples was mixed with 150 μl of free cholesterol decomposition reagent (45 U/ml catalase, 1 U/ml cholesterol oxidase) and incubated 2-4 h at 37° C., and then the final volume was brought up to 250 μl prior to determining free and total cholesterol remaining. Total cholesterol remaining was determined by mixing 50 μl of end product reaction with 50 μl of reagent A, as described above. Free cholesterol remaining was determined similarly, but without including cholesterol esterase in the reagent. CE was calculated by the formula CE=(TC−FC)×DF, where TC is the total cholesterol remaining, FC the free cholesterol remaining and DF the dilution factor, in this case, 10.
Lipid content: Oil Red 0 staining was performed on frozen tissue sections and triglyceride content was determined on snap frozen kidney tissue as described above.
as §1, §2
Picrosirius red staining: Paraffin-embedded sections (4 μm thick) were deparaffinized with xylene and a graded alcohol series. Sections were rinsed for 5 min in distilled water, stained for 1 hour with picrosirius red in saturated aqueous picric acid, examined under a light microscope and photomicrographs were taken. Histological images were visualized using a light microscope (Olympus BX 41, Tokyo, Japan) at 40× magnification and analyzed using Image J software.

[4] = cited from earlier work
[5] = Col4a3−/− mice treated 4 weeks, ezetimibe 5 mg/kg, ramipril 10 mg/kg
[6] = ezetimibe 5 mg/kg oral gavage daily, sacrifice at 8 weeks
[7] = Col4a3 knockout mice, ezetimibe treated vs untreated

Structure (SMILES): O=C1[C@H](CC[C@H](O)c2ccc(F)cc2)[C@@H](c2ccc(O)cc2)N1c1ccc(F)cc1 [ezetimibe]
- stability [1]: stable
- albumin/creatinine ratio (ACR) (Col4a3−/− mice; 4-week-old Col4a3−/− mice treated 4 weeks, ezetimibe 5 mg/kg BW oral, ramipril 10 mg/kg BW in drinking water): significant reduction in the albumin/creatinine ratio; also recorded: significant decrease in the albumin/creatinine ratio
- serum BUN levels (Col4a3−/− mice; [5]): significant reduction in the serum BUN levels
- serum creatinine levels (Col4a3−/− mice; [5]): significant reduction in the serum creatinine levels
- body weight (Col4a3 knockout mice [2]; ezetimibe 5 mg/kg oral gavage daily): prevents body weight loss
- albumin/creatinine ratio (Col4a3 knockout mice [2]; ezetimibe 5 mg/kg oral gavage daily from 4 weeks of age, vs untreated Col4a3 knockout mice): significant reduction in the albumin/creatinine ratio
- serum BUN levels (Col4a3 knockout mice [2]; [6]): prevents increases in serum BUN levels
- serum creatinine levels (Col4a3 knockout mice [2]; [6]): significantly reduces serum creatinine levels
- total cholesterol levels in kidney cortexes (Col4a3 knockout mice [3]; Col4a3 knockout mice, ezetimibe treated or untreated): No change in total cholesterol levels
- fibrosis (PicroSirius Red staining) (Col4a3 knockout mice [3]; [7]): significant reduction of fibrosis
- glomerular lipid droplets (Oil Red O staining) (Col4a3 knockout mice [3]; [7]): significant reduction of glomerular lipid droplets
- serum triglyceride levels (Col4a3 knockout mice [3]; [7]): significantly decreased
- total serum cholesterol levels (Col4a3 knockout mice [3]; [7]): significantly decreased
- triglyceride content in kidney cortexes (Col4a3 knockout mice [3]; [7]): significantly reduces triglyceride content
- CD36 expression (Col4a3 knockout mice [3]; ezetimibe treated Col4a3 knockout mice (untreated knockout also increased)): significantly increased
- ratio of esterified to total cholesterol in kidney cortexes (Col4a3 knockout mice [3]; ezetimibe treated Col4a3 knockout mice compared to controls (untreated knockout also increased)): significantly increased
- solubility in ethanol, methanol, and acetone [4]: freely to very soluble
- solubility in water [4]: practically insoluble
